Experiments:
[1] = system: E. faecalis vancomycin-resistant (VRE) ATCC BAA-2365; assay: MBC and MDK99.9 determination (CFU counting); type: cell-based, Enterococcus faecalis; details: for MBC: Enterococcus faecalis, cut-off 99.9% reduction in CFU
Procedure: Further experiments were conducted using different strains of E. faecalis, as clinically relevant Gram-positive bacterial strains: E. faecalis vancomycin-resistant (VRE) ATCC BAA-2365, and E. faecalis ATCC 29212 in order to determine the Minimal Inhibitory Concentration (MIC) which is the minimal concentration required to prevent bacterial growth; the Minimal Bactericidal Concentration (MBC) which determines the lowest concentration at which an antimicrobial agent kill a particular microorganism and a Minimum Duration for killing 99.9% bacteria (MDK99.9) which is a tolerance metric according to the EUCAST.
MBC and MDK99.9 determination: A single colony selected from the different strains of E. faecalis is resuspended and cultured in the appropriate medium (TSB, or BHI) overnight (O/N) in aerobic conditions (37° C. with 220 rpm shaking), next day a 1:100 inoculum in the appropriate medium was incubated in aerobic conditions for 2 h. The culture is then challenged with triafluocyl at MIC concentration or higher concentrations. Bacterial growth was measured after different time intervals by counting the colony-forming units after plating appropriate culture dilutions on BHI agar plates. […] And the real time needed is defined as the MDK99.9. MBC for Triafluocyl against E. faecalis vancomycin-resistant (VRE) ATCC BAA-2365 was 20 μg/ml. MDK99.9 for Triafluocyl against E. faecalis vancomycin-resistant (VRE) ATCC BAA-2365 was 24 hours.
For MBC determination a 1:100 inoculum of an O/N culture (prepared like before) was incubated in aerobic conditions for 2 h in bacteria-specific medium. The culture was then challenged with Fluometacyl at the MIC concentration or higher. Bacterial growth was measured after different time intervals by counting the colony-forming units (CFU) after plating appropriate culture dilutions on bacteria-specific medium agar plates.

[2] = system: Escherichia coli (ATCC 8739); assay: MBC determination with polymyxin B nonapeptide (PMBN); type: cell-based; details: ATCC8739, in presence of 40 μg/ml PMBN, read-out: Minimal Bactericidal Concentration (MBC)
Procedure: The MBC represents the lowest concentration of drug required to kill the bacteria in a liquid culture.
The Minimal Bactericidal Concentration (MBC) of Triafluocyl in presence of 40 μg/ml PMBN against Escherichia coli (ATCC 8739) is equal to 5 μg/ml (FIG. 11B).
The Minimal Bactericidal Concentration (MBC) of Fluometacyl in presence of 40 μg/ml PMBN against Escherichia coli (ATCC 8739) is equal to 5 μg/ml (FIG. 12B).

[3] = system: Pseudomonas aeruginosa (ATCC 27853); assay: MIC determination with or without C12(ω7)Kβ12 (OAK); type: cell-based; details: for MIC: Pseudomonas aeruginosa, ATCC27853, in presence of 10 μg/ml OAK (C12(ω7)Kβ12)
Procedure: Determination of Minimal Inhibitory Concentration (MIC) of Triafluocyl (Cayman Chemical, Item No. 15425) in presence of C12(ω7)Kβ12 (provided by Custom synthesis Biomers Germany) against Pseudomonas aeruginosa (ATCC 27853).
A single colony of Pseudomonas aeruginosa grown on a Tryptic Soy agar (TSA) plate is resuspended and cultured in Tryptic Soy Broth (TSB) medium overnight (O/N) in aerobic conditions (37° C. with 190 rpm shaking in New Brunswick Innova 4200 Incubator Shaker). Next day the resulting inoculum is diluted again at 1:100 in Mueller-Hinton broth (MHB) and then incubated in aerobic conditions for 1 h30 (OD=0.08-0.1) to reach an exponential phase in the grown curve. A resulting inoculum corresponding to around 5×10^5 colony forming unit (CFU)/ml, is further incubated in presence or absence of different concentrations (10 and 20 μg/ml) of Triafluocyl in 2% DMSO with or without C12(ω7)Kβ12 for 18 hr in aerobic conditions (37° C. with 190 rpm shaking in New Brunswick Innova 4200 Incubator Shaker). Growth of Pseudomonas aeruginosa in each condition depicted in FIG. 15A is evaluated by reading the OD of each culture at 600 nm (OD600) in a spectrophotometer (Fisher Scientific, cell density meter model 40).
Determination of Minimal Inhibitory Concentration (MIC) of Fluometacyl (prepared according to WO99/0514) in presence of C12(ω7)Kβ12 (provided by Biomers.net Germany) against Pseudomonas aeruginosa (ATCC 27853). The C12(ω7)Kβ12 was synthesized by solid-phase method as described by I. Radzishevsky in Antimicrobial Agents and Chemotherapy, May 2007 (1753-1759) (https://aac.asm.org/content/51/5/1753)
A single colony of Pseudomonas aeruginosa grown on a Tryptic Soy agar (TSA) plate is resuspended and cultured in Tryptic Soy Broth (TSB) medium overnight (O/N) in aerobic conditions (37° C. with 220 rpm shaking in New Brunswick Innova 4200 Incubator Shaker). Next day the resulting inoculum is diluted again at 1:100 in Mueller-Hinton broth (MHB) and then incubated in aerobic conditions for 1 h30 (OD=0.08-0.1) to reach an exponential phase in the grown curve. A resulting inoculum corresponding to around 5×10^5 colony forming unit (CFU)/ml, is further incubated in presence or absence of different concentrations (10 and 20 μg/ml) of Fluometacyl in 2% DMSO with or without C12(ω7)Kβ12 for 18 hr in aerobic conditions (37° C. with 190 rpm shaking in New Brunswick Innova 4200 Incubator Shaker). Growth of Pseudomonas aeruginosa in each condition depicted in FIG. 16A is evaluated by reading the Optical Density of each culture at 600 nm (OD600) in a spectrophotometer (Fisher Scientific, cell density meter model 40).

MIC [3] | SMILES | MDK 99.9 Time (h) needed to kill 99.9% of the started inoculum [1] | MBC [1] | MBC [2] | inhibition of P. aeruginosa growth ([3]; taken alone at a concentration of 10 μg/ml) | inhibition of P. aeruginosa growth ([3]; taken alone at a concentration of 20 μg/ml)
10 µg/mL | CCCSc1nc(N[C@@H]2C[C@H]2c2ccc(F)c(F)c2)c2nnn([C@@H]3C[C@H](OCCO)[C@@H](O)[C@H]3O)c2n1 [Triafluocyl, (1S,2S,3R,5S)-3-[7-[(1R,2S)-2-(3,4-difluorophenyl)cyclopropylamino]-5-(propylthio)-3H-[1,2,3]-triazolo[4,5-d]pyrimidin-3-yl]-5-(2-hydroxyethoxy)-1,2-cyclopentanediol] | 24 h | 20 µg/mL | 5 µg/mL | unable to inhibit P. aeruginosa growth | 
20 µg/mL | CCCSc1nc(N[C@@H]2C[C@H]2c2ccc(F)c(F)c2)c2nnn([C@@H]3C[C@H](O)[C@@H](O)[C@H]3O)c2n1 [Fluometacyl, (1S,2R,3S,4R)-4-[7-[[(1R,2S)-2-(3,4-Difluorophenyl)cyclopropyl]amino]-5-(propylthio)-3H-1,2,3-triazolo[4,5-d]pyrimidin-3-yl]-1,2,3-cyclopentanetriol] |  | 38 µM | 5 µg/mL |  | unable to inhibit P. aeruginosa growth
